# Laboratory results published in patent publication US8822449B2, “Substituted aminoindanes and analogs thereof, and the pharmaceutical use thereof” (Sanofi, priority 2008, dated 2014).
# Target: T1, sodium-proton exchanger of subtype 3 (NHE3) (Homo sapiens, UniProt P48764)
# T1 construct: expressed in transfected cells
# T1 sequence (P48764 26-834): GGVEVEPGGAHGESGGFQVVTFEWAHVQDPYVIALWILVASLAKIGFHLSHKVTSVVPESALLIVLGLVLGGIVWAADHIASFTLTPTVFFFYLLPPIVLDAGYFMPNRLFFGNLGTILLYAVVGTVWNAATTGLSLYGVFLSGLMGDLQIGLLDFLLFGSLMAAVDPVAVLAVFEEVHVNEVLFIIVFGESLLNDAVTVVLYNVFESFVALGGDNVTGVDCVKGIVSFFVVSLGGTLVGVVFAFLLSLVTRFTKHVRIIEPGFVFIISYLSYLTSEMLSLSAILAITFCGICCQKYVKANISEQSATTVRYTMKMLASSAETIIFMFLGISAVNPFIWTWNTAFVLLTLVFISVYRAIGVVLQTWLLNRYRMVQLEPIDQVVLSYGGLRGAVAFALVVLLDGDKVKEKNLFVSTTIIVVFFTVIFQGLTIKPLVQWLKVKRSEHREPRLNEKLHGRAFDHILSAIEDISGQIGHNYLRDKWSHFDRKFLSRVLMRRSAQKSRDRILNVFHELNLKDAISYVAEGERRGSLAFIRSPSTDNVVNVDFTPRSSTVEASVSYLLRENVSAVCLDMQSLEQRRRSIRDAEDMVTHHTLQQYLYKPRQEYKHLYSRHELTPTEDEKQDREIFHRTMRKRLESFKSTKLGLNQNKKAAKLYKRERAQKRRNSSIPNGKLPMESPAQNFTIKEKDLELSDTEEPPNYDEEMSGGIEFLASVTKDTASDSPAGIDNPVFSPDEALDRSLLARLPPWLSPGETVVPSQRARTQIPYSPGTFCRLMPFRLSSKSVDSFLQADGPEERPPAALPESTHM
# Assay: Recovery of intracellular pH (pHi) after acidification in LAP1 cells stably expressing NHE3 (BCECF fluorescence, FLIPR)
# Type: cell-based
# Conditions: LAP1 cells stably expressing NHE3; pH recovery after acidification; range 1 is % inhibition at 10 μM; read-out: Activity range (inhibitory effect on NHE3)
IC50,inhibition at 10 µM,Structure (SMILES)
1000 to 10000 nM,,"NCC1CCN([C@@H]2Cc3ccccc3[C@H]2Oc2ccc(S(N)(=O)=O)c(Cl)c2Cl)C1 (mixture of isomers) [Example 538, 4-[rac-trans-(1,2)-2-(3-aminomethylpyrrolidin-1-yl)indan-1-yloxy]-2,3-dichlorobenzenesulfonamide]"
1000 to 10000 nM,,"CCc1ccc(O[C@@H]2c3ccccc3C[C@H]2N2CCC[C@@H](N)C2)c(C(C)(C)C)c1 (racemic) [Example 49, (R)-1-[rac-trans-(1,2)-1-(2-tert-butyl-4-ethylphenoxy)indan-2-yl]piperidin-3-ylamine]"
,20 to 50%,"N[C@@H]1CCCN([C@H]2CCc3ccccc3[C@@H]2Oc2ccc(F)cc2F)C1 (racemic) [Example 32, (R)-1-[rac-trans-(1,2)-1-(2,4-difluorophenoxy)-1,2,3,4-tetrahydronaphthalen-2-yl]piperidin-3-ylamine]"
< 1000 nM,,"N[C@@H]1CCCN([C@H]2Cc3c(Cl)cc(Cl)cc3[C@@H]2Oc2ccc(F)c3cccnc23)C1 [Example 27, (R)-1-[(1S,2S)-4,6-dichloro-1-(5-fluoroquinolin-8-yloxy)indan-2-yl]piperidin-3-ylamine]"
< 1000 nM,,"CS(=O)(=O)c1ccc(O[C@H]2c3cc(Cl)ccc3C[C@@H]2N2CCNCC2)cc1 (racemic) [Example 289, 1-[rac-trans-(1,2)-6-chloro-1-(4-methanesulfonylphenoxy)indan-2-yl]piperazine]"
,20 to 50%,"CS(=O)(=O)c1ccc(O[C@H]2c3ccccc3C[C@@H]2NCc2ccccc2)cc1 (racemic) [Example 597, benzyl[1-(4-methanesulfonylphenoxy)indan-2-yl]amine]"
1000 to 10000 nM,,"CS(=O)(=O)c1ccc(O[C@@H]2c3ccccc3C[C@H]2NCC2CCC2)cc1 (racemic) [Example 717, Cyclobutylmethyl-[rac-trans-(1,2)-1-(4-methanesulfonyl-phenoxy)-indan-2-yl]-amine]"
1000 to 10000 nM,,"CN(C1CCNCC1)[C@@H]1Cc2ccccc2[C@H]1Oc1ccc(N2CCNCC2)cc1 (racemic) [Example 630, methyl-[rac-trans-(1,2)-1-(4-piperazin-1-ylphenoxy)indan-2-yl]piperidin-4-ylamine]"
< 1000 nM,,"Cc1nnc(C)n1-c1ccc(O[C@H]2c3cc(Cl)ccc3C[C@@H]2N2CCCC2)c(Cl)c1 [Example 492, 4-[3-chloro-4-(trans-(1S,2S)-6-chloro-2-pyrrolidin-1-ylindan-1-yloxy)phenyl]-3,5-dimethyl-4H-[1,2,4]triazole]"
,20 to 50%,"c1ccc2c(c1)CC[C@H](N1CCOCC1)[C@H]2Oc1cccc2ncccc12 (racemic) [Example 570, 5-(rac-trans-(1,2)-2-morpholin-4-yl-1,2,3,4-tetrahydronaphthalen-1-yloxy)quinoline]"
1000 to 10000 nM,,"CCc1ccc(O[C@@H]2c3ccccc3C[C@H]2N2CCC(N)C2)c(C(C)(C)C)c1 (mixture of isomers) [Example 267, 1-[rac-trans-(1,2)-1-(2-tert-butyl-4-ethylphenoxy)indan-2-yl]pyrrolidin-3-ylamine]"
,20 to 50%,"N[C@@H]1CCCN([C@H]2CCc3ccccc3[C@@H]2Oc2ccc(F)cc2-c2ccno2)C1 (racemic) [Example 68, (R)-1-[rac-trans-(1,2)-1-(4-fluoro-2-isoxazol-5-ylphenoxy)-1,2,3,4-tetrahydronaphthalen-2-yl]piperidin-3-ylamine]"
,20 to 50%,"N[C@@H]1CCCN([C@H]2CCc3ccccc3[C@@H]2Oc2cccc(Cl)c2)C1 (racemic) [Example 55, (R)-1-[rac-trans-(1,2)-1-(3-chlorophenoxy)-1,2,3,4-tetrahydronaphthalen-2-yl]piperidin-3-ylamine]"
< 1000 nM,,"Cc1nnc(C)n1-c1ccc(O[C@H]2c3cc(Cl)cc(Cl)c3C[C@@H]2N2CC[C@H](O)C2)cc1 [Example 206, (S)-1-{trans-(1S,2S)-4,6-dichloro-1-[4-(3,5-dimethyl-[1,2,4]triazol-4-yl)phenoxy]indan-2-yl}pyrrolidin-3-ol]"
< 1000 nM,,"O=C1CNC(=O)N1c1ccc(O[C@H]2c3cc(Cl)cc(Cl)c3C[C@@H]2N2CC[C@@H](O)C2)cc1 [Example 426, 3-{4-[(1S,2S)-4,6-dichloro-2-((R)-3-hydroxypyrrolidin-1-yl)indan-1-yloxy]phenyl}imidazolidine-2,4-dione]"
,20 to 50%,"COc1cc(O[C@H]2c3ccccc3CC[C@@H]2N2CCC[C@H](N)C2)ccc1Br (racemic) [Example 173, (S)-1-[rac-trans-(1,2)-1-(4-bromo-3-methoxyphenoxy)-1,2,3,4-tetrahydronaphthalen-2-yl]piperidin-3-ylamine]"
< 1000 nM,,"Cc1nnc(C)n1-c1ccc(O[C@H]2c3cc(Cl)cc(Cl)c3C[C@@H]2N2CC[C@@H](O)C2)c(Cl)c1 [Example 122, (R)-1-{trans-(1S,2S)-4,6-dichloro-1-[2-chloro-4-(3,5-dimethyl-[1,2,4]triazol-4-yl)phenoxy]indan-2-yl}pyrrolidin-3-ol]"
1000 to 10000 nM,,"N#Cc1ccc(O[C@H]2c3ccccc3CC[C@@H]2N2CCC[C@@H](N)C2)c(Cl)c1 (racemic) [Example 514, 4-[rac-trans-(1,2)-2-((R)-3-aminopiperidin-1-yl)-1,2,3,4-tetrahydronaphthalen-1-yloxy]-3-chlorobenzonitrile]"
1000 to 10000 nM,,"COC(=O)c1ccc(O[C@H]2c3ccccc3C[C@@H]2N2CCCC2)cc1 (racemic) [Example 467, 4-(rac-trans-(1,2)-2-pyrrolidin-1-ylindan-1-yloxy)benzoic acid methyl ester]"
,20 to 50%,"CS(=O)(=O)c1cccc(O[C@H]2c3ccccc3C[C@@H]2N2CCCC2)c1 (racemic) [Example 269, 1-[rac-trans-(1,2)-1-(3-methanesulfonylphenoxy)indan-2-yl]pyrrolidine]"
,20 to 50%,"N[C@H]1CCCN([C@H]2CCc3ccccc3[C@@H]2Oc2ccc(F)cc2-c2cc[nH]n2)C1 (racemic) [Example 205, (S)-1-{rac-trans-(1,2)-1-[4-fluoro-2-(1H-pyrazol-3-yl)phenoxy]-1,2,3,4-tetrahydronaphthalen-2-yl}piperidin-3-ylamine]"
1000 to 10000 nM,,"O=C1COC(=O)N1c1ccc(O[C@H]2c3cc(Cl)cc(Cl)c3C[C@@H]2N2CC[C@@H](O)C2)cc1 [Example 427, 3-{4-[(1S,2S)-4,6-dichloro-2-((R)-3-hydroxypyrrolidin-1-yl)indan-1-yloxy]phenyl}oxazolidine-2,4-dione]"
1000 to 10000 nM,,"NC1CCN([C@@H]2Cc3ccccc3[C@H]2Oc2ccc(NC(=O)OCc3ccccc3)cc2)C1 (mixture of isomers) [Example 241, {4-[rac-trans-(1,2)-2-(3-aminopyrrolidin-1-yl)indan-1-yloxy]phenyl}carbamic acid benzyl ester]"
,20 to 50%,"CC(=O)Nc1cccc(O[C@H]2c3cc(Cl)cc(Cl)c3C[C@@H]2N2CCOCC2)c1 (racemic) [Example 646, N-[3-(rac-trans-(1,2)-4,6-dichloro-2-morpholin-4-ylindan-1-yloxy)phenyl]acetamide]"
1000 to 10000 nM,,"O=C1CCc2c(cccc2O[C@H]2c3cc(Cl)cc(Cl)c3C[C@@H]2N2CC[C@@H](O)C2)N1 [Example 574, 5-[(1S,2S)-4,6-dichloro-2-((R)-3-hydroxypyrrolidin-1-yl)indan-1-yloxy]-3,4-dihydro-1H-quinolin-2-one]"
